Structures are written as SMILES. pIC50: −log10 of the molar value.

This assay has as its target T1, Human CD73 (amino acid residues 27-549) (Homo sapiens, UniProt P21589).
T1 construct: Human CD73 (amino acid residues 27-549); His tag (N); made in house; host or cells: E. coli
T1 sequence (P21589 27-549): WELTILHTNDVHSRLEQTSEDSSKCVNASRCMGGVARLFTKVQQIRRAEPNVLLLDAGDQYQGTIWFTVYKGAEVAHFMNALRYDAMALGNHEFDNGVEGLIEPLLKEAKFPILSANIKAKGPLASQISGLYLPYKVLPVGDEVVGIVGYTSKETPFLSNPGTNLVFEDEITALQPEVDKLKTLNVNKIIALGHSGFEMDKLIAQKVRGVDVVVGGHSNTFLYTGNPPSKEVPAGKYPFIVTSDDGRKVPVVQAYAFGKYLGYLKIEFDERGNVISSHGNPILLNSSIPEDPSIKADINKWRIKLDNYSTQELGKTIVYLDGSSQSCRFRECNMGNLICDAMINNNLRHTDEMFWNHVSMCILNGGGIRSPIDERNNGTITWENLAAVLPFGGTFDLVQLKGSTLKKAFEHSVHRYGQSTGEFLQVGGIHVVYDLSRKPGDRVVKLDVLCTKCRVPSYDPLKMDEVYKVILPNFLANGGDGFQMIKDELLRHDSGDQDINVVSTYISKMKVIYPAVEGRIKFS
The experiment in a line: CD73 enzymatic assay (luciferase-based indirect assay, CellTiter-Glo). It counts as biochemical. Conditions: 0.4 nM CD73, 150 μM AMP, 1 hour at room temperature. The procedure: CD73 enzymatic activity was measured in a luciferase-based indirect assay using CellTiter-Glo® system from Promega. The luciferase reaction in the presence of ATP is inhibited by AMP, a primary substrate of CD73. Addition of CD73 enzyme to the reaction converts AMP to adenosine, and release the inhibition, producing a luminescent signal. Inhibition of CD73 leads to the decrease of this luminescent signal.
Human CD73 (amino acid residues 27-549) with N-Terminal His tag was purified in E. coli. All the assay components were prepared in 50 mM HEPEs buffer (pH 7.4) with 0.01% Tween® 20. The CD73 enzymatic assay was performed using 0.4 nM CD73 and 150 μM AMP. 9.5 μL of CD73 protein and 9.5 μL of AMP were added to the wells of a 384 well plate containing 1 μL of various concentrations of test compound or DMSO vehicle and incubated for 1 hour at room temperature. 16 wells containing CD73, AMP and 5% DMSO served as high control. 16 wells containing AMP and 5% DMSO served as low control. Enzymatic reaction was stopped and AMP level was measured indirectly by adding 5 μL of CellTiter-Glo® 2.0 reagent and 5 μL of ATP with a final concentration of 1 μM. Following incubation of the plate at room temperature for 30 minutes, luminescent signal was read on a Tecan plate reader. The percentage inhibition at individual concentrations relative to high and low controls was calculated. The data were analyzed by using nonlinear regression to generate IC50 values.
The pIC50 is the IC50 on a negative log10 scale, so that one unit is a factor of ten. Higher therefore signals a low IC50. Consider `O=C(Nc1ccc(OC(F)(F)F)cc1)N[C@@H]1CCN(c2cn[nH]c(=O)c2Cl)C1` [P-0041, (R)-1-(1-(5-chloro-6-oxo-1,6-dihydropyridazin-4-yl)pyrrolidin-3-yl)-3-(4-(trifluoromethoxy)phenyl)urea], for which the pIC50 was 5.00 to 9.00. The value for `N#Cc1ccc(NC(=O)N[C@@H]2CCN(c3cn[nH]c(=O)c3Cl)C2)cc1` [P-0042, (R)-1-(1-(5-chloro-6-oxo-1,6-dihydropyridazin-4-yl)pyrrolidin-3-yl)-3-(4-cyanophenyl)urea] was 5.00 to 9.00. The figure for `O=C(Nc1ccc(C(F)(F)F)cc1)N[C@@H]1CCN(c2cn[nH]c(=O)c2Cl)C1` [P-0043, (R)-1-(1-(5-chloro-6-oxo-1,6-dihydropyridazin-4-yl)pyrrolidin-3-yl)-3-(4-(trifluoromethyl)phenyl)urea] is 5.00 to 9.00. As to `O=C(Nc1cccc(OC(F)F)c1)N[C@@H]1CCN(c2cn[nH]c(=O)c2Cl)C1` [P-0044, (R)-1-(1-(5-chloro-6-oxo-1,6-dihydropyridazin-4-yl)pyrrolidin-3-yl)-3-(3-(difluoromethoxy)phenyl)urea], the pIC50 was 5.00 to 9.00. The figure for `CN(C)c1ccc(NC(=O)N[C@@H]2CCN(c3cn[nH]c(=O)c3Cl)C2)cc1` [P-0045, (R)-1-(1-(5-chloro-6-oxo-1,6-dihydropyridazin-4-yl)pyrrolidin-3-yl)-3-(4-(dimethylamino)phenyl)urea] is 4.00 to 5.00; for `O=C(N[C@@H]1CCN(c2cn[nH]c(=O)c2Cl)C1)OCc1ccccc1` [P-0048, benzyl (R)-(1-(5-chloro-6-oxo-1,6-dihydropyridazin-4-yl)pyrrolidin-3-yl)carbamate] it is 4.00 to 5.00. `COc1ccc(OC(=O)N[C@@H]2CCN(c3cn[nH]c(=O)c3Cl)C2)cc1` [P-0049, 4-methoxyphenyl (R)-(1-(5-chloro-6-oxo-1,6-dihydropyridazin-4-yl)pyrrolidin-3-yl)carbamate] had a pIC50 of 5.00 to 9.00. The value for `CC(C)COC(=O)N[C@@H]1CCN(c2cn[nH]c(=O)c2Cl)C1` [P-0050, isobutyl (R)-(1-(5-chloro-6-oxo-1,6-dihydropyridazin-4-yl)pyrrolidin-3-yl)carbamate] was 5.00 to 9.00; that for `O=C(NC1CC1)N[C@@H]1CCN(c2cn[nH]c(=O)c2Cl)C1` [P-0053, (R)-1-(1-(5-chloro-6-oxo-1,6-dihydropyridazin-4-yl)pyrrolidin-3-yl)-3-cyclopropylurea] was 5.00 to 9.00. `O=C(N[C@@H]1CCN(c2cn[nH]c(=O)c2Cl)C1)OC1CCOC1` (stereo partly drawn) [P-0055, tetrahydrofuran-3-yl ((R)-1-(5-chloro-6-oxo-1,6-dihydropyridazin-4-yl)pyrrolidin-3-yl)carbamate]: the pIC50 is 5.00 to 9.00. In the case of `C[C@H]1CN(c2cn[nH]c(=O)c2Cl)C[C@@H]1NC(=O)OC(C)(C)C` [P-0060, tert-butyl ((3R,4S)-1-(5-chloro-6-oxo-1,6-dihydropyridazin-4-yl)-4-methylpyrrolidin-3-yl)carbamate], the pIC50 is 5.00 to 9.00. The value for `C[C@H]1CN(c2cn[nH]c(=O)c2Cl)C[C@@H]1NC(=O)NC1CCCC1` [P-0061, 1-((3R,4S)-1-(5-chloro-6-oxo-1,6-dihydropyridazin-4-yl)-4-methylpyrrolidin-3-yl)-3-cyclopentylurea] was 5.00 to 9.00; that for `CN(C(=O)OC(C)(C)C)C1CCN(c2cn[nH]c(=O)c2Cl)C1` (centres unmarked) [P-0066, tert-butyl (1-(5-chloro-6-oxo-1,6-dihydropyridazin-4-yl)pyrrolidin-3-yl)(methyl)carbamate] was 4.00 to 5.00; that for `CN(C(=O)NC1CCCC1)C1CCN(c2cn[nH]c(=O)c2Cl)C1` (centres unmarked) [P-0067, 1-(1-(5-chloro-6-oxo-1,6-dihydropyridazin-4-yl)pyrrolidin-3-yl)-3-cyclopentyl-1-methylurea] was 4.00 to 5.00.

As for `CN(C(=O)NC1CCCCC1)C1CCN(c2cn[nH]c(=O)c2Cl)C1` (centres unmarked) [P-0069, 1-(1-(5-chloro-6-oxo-1,6-dihydropyridazin-4-yl)pyrrolidin-3-yl)-3-cyclohexyl-1-methylurea], the pIC50 is 5.00 to 9.00. The value for `CC(C)(C)OC(=O)NC1(C(=O)O)CCN(c2cn[nH]c(=O)c2Cl)C1` (centres unmarked) [P-0070, 3-((tert-butoxycarbonyl)amino)-1-(5-chloro-6-oxo-1,6-dihydropyridazin-4-yl)pyrrolidine-3-carboxylic acid] was 3.00 to 4.00; that for `CC(=O)N1CCC(NC(=O)N[C@@H]2CCN(c3cn[nH]c(=O)c3Cl)C2)CC1` [P-0071, (R)-1-(1-acetylpiperidin-4-yl)-3-(1-(5-chloro-6-oxo-1,6-dihydropyridazin-4-yl)pyrrolidin-3-yl)urea] was 5.00 to 9.00. For the molecule `CCS(=O)(=O)N1CCC(NC(=O)N[C@@H]2CCN(c3cn[nH]c(=O)c3Cl)C2)CC1` [P-0072, (R)-1-(1-(5-chloro-6-oxo-1,6-dihydropyridazin-4-yl)pyrrolidin-3-yl)-3-(1-(ethylsulfonyl)piperidin-4-yl)urea], the pIC50 was 5.00 to 9.00. The molecule `N#CC1(NC(=O)NC2CCCC2)CCN(c2cn[nH]c(=O)c2Cl)C1` (centres unmarked) [P-0073, 1-(1-(5-chloro-6-oxo-1,6-dihydropyridazin-4-yl)-3-cyanopyrrolidin-3-yl)-3-cyclopentylurea] gave a pIC50 of 4.00 to 5.00.

In turn, `NC(=O)C1(NC(=O)OC2CCCCC2)CCN(c2cn[nH]c(=O)c2Cl)C1` (centres unmarked) [P-0075, cyclohexyl (3-carbamoyl-1-(5-chloro-6-oxo-1,6-dihydropyridazin-4-yl)pyrrolidin-3-yl)carbamate] showed a pIC50 of 4.00 to 5.00. The value for `CN(C(=O)NC1CCN(c2cn[nH]c(=O)c2Cl)C1)C1CCCCC1` (centres unmarked) [P-0078, 3-(1-(5-chloro-6-oxo-1,6-dihydropyridazin-4-yl)pyrrolidin-3-yl)-1-cyclohexyl-1-methylurea] was 4.00 to 5.00; that for `CN(C(=O)NC1CCN(c2cn[nH]c(=O)c2Cl)C1)C1CCCC1` (centres unmarked) [P-0079, 3-(1-(5-chloro-6-oxo-1,6-dihydropyridazin-4-yl)pyrrolidin-3-yl)-1-cyclopentyl-1-methylurea] was 5.00 to 9.00; that for `Cc1n[nH]c(=O)c(Cl)c1N1CC[C@@H](NC(=O)NC2CCCCC2)C1` [P-0080, (R)-1-(1-(5-chloro-3-methyl-6-oxo-1,6-dihydropyridazin-4-yl)pyrrolidin-3-yl)-3-cyclohexylurea] was 4.00 to 5.00. In the case of `Cc1c(N2CC[C@@H](NC(=O)OC3CCCCC3)C2)cn[nH]c1=O` [P-0081, cyclohexyl (R)-(1-(5-methyl-6-oxo-1,6-dihydropyridazin-4-yl)pyrrolidin-3-yl)carbamate], the pIC50 is 5.00 to 9.00. The figure for `Cc1n[nH]c(=O)c(Cl)c1N1CC[C@@H](NC(=O)OC2CCCC2)C1` [P-0082, cyclopentyl (R)-(1-(5-chloro-3-methyl-6-oxo-1,6-dihydropyridazin-4-yl)pyrrolidin-3-yl)carbamate] is 4.00 to 5.00; for `O=C(NCC1CC1)N[C@@H]1CCN(c2cn[nH]c(=O)c2Cl)C1` [P-0083, (R)-1-(1-(5-chloro-6-oxo-1,6-dihydropyridazin-4-yl)pyrrolidin-3-yl)-3-(cyclopropylmethyl)urea] it is 4.00 to 5.00. The figure for `O=C(NC1CC1c1ccccc1)N[C@@H]1CCN(c2cn[nH]c(=O)c2Cl)C1` (stereo partly drawn) [P-0084, 1-((R)-1-(5-chloro-6-oxo-1,6-dihydropyridazin-4-yl)pyrrolidin-3-yl)-3-(2-phenylcyclopropyl)urea] is 5.00 to 9.00; for `O=C(NC1C2CC3CC(C2)CC1C3)N[C@@H]1CCN(c2cn[nH]c(=O)c2Cl)C1` (stereo partly drawn) [P-0087, (R)-1-(adamantan-2-yl)-3-(1-(5-chloro-6-oxo-1,6-dihydropyridazin-4-yl)pyrrolidin-3-yl)urea] it is 5.00 to 9.00. The figure for `COC(=O)C12CCC(NC(=O)O[C@@H]3CCN(c4cn[nH]c(=O)c4Cl)C3)(CC1)CC2` [P-0120, methyl (R)-4-((((1-(5-chloro-6-oxo-1,6-dihydropyridazin-4-yl)pyrrolidin-3-yl)oxy)carbonyl)amino)bicyclo [2.2.2]octane-1-carboxylate] is 5.00 to 9.00.
